In patent US10676485B2, “Macrocyclic MCL-1 inhibitors and methods of use” (AbbVie Inc., priority 2017, dated 2020):
Like-named read-outs stand apart in the source and are kept apart here.

Columns and labels:
[1] = system: AMO-1 human multiple myeloma tumor cell line; assay: AMO-1 cell viability assay (CellTiter-Glo); format: cell-based; conditions: AMO1, read-out: AMO-1 Viability IC50 (μM), 10% FBS, 24 hours of compound treatment
Protocol: (§1) In one exemplary set of conditions, NCI-H929 or AMO-1 (ATCC. Manassas, Va.) were plated 4.000 cells per well in 384-well tissue culture plates (Corning. Corning, N.Y.) in a total volume of 25 μL RPMI tissue culture medium supplemented with 10% fetal bovine serum (Sigma-Aldrich, St. Louis, Mo.) and treated with a 3-fold serial dilution of the compounds of interest with a Labcyte Echo from a final concentration of 10 μM to 0.0005 μM. Each concentration was tested in duplicate at least 3 independent times. A luminescent signal proportional to the number of viable cells following 24 hours of compound treatment was determined using the CellTiter-Glo® Luminescent Cell Viability Assay according to the manufacturer's recommendations (Promega Corp., Madison, Wis.). The plates were read in a Perkin Elmer Envision using a Luminescence protocol. To generate dose response curves the data is normalized to percent viability by setting the averages of the staurosporine (10 uM) and DMSO only control wells to 0% and (00)% viability respectively. The IC50 values for the compounds are generated by fitting the normalized data with Accelrys Assay Explorer 3.3 to a sigmoidal curve model using linear regression.

GST-MCL-1 = GST-MCL-1 (Homo sapiens (Human), UniProt Q07820); assay: TR-FRET MCL-1 binding assay (competition with probe F-Bak)
In short: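 Tested both in plain buffer and with 10% human serum. Top concentration 25 μM, 11 three-fold steps, 2 h room-temperature incubation of GST-MCL-1 with Tb-labelled anti-His antibody and F-Bak probe. Time-resolved FRET: 340 nm excitation, 520/525 and 495/510 nm emission.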

[2] = system: NCI-H929 human multiple myeloma tumor cell line; assay: NCI-H929 cell viability assay (CellTiter-Glo); format: cell-based; conditions: NCI-H929, read-out: H929 Viability IC50 (μM), 10% FBS, 24 hours of compound treatment
Protocol: as §1

[3] = read-out: MCL-1 Binding Ki (nM, 10% HS), in the presence of 10% HS
[4] = without HS, read-out: MCL-1 Binding Ki

GST-MCL-1, sequence (Q07820 whole entry): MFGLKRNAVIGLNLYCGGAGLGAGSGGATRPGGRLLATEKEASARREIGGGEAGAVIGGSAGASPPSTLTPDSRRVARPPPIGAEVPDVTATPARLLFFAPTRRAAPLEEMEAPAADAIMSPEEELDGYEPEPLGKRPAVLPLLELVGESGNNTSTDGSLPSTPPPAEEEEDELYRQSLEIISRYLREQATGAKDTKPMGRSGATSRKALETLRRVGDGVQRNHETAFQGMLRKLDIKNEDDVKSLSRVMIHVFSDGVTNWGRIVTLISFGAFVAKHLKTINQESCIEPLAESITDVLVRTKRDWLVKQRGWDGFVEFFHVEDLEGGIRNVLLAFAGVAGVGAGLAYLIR

Cc1c(Cl)c2c(Cl)c(C)c1-c1c(C3=CCCC3)sc3ncnc(c13)O[C@@H](C(=O)O)Cc1cc(ccc1OCc1ccnc(C3=CC[C@](F)(COC[C@H]4COCCO4)CC3)n1)OC[C@@H](CN1CCN(C)CC1)O2 [Example 34, (7R,16R)-19,23-dichloro-1-(cyclopent-1-en-1-yl)-10-({2-[(4S)-4-({[(2R)-1,4-dioxan-2-yl]methoxy}methyl)-4-fluorocyclohex-1-en-1-yl]pyrimidin-4-yl}methoxy)-20,22-dimethyl-16-[(4-methylpiperazin-1-yl)methyl]-7,8,15,16-tetrahydro-18,21-etheno-13,9-(metheno)-6,14,17-trioxa-2-thia-3,5-diazacyclononadeca[1,2,3-cd]indene-7-carboxylic acid]
IC50 [1]: 0.235 nM | Ki (GST-MCL-1; [3]): 0.54 nM | Ki (GST-MCL-1; [4]): 0.03 nM | IC50 [2]: 0.001 µM

Cc1c(Cl)c2c(Cl)c(C)c1-c1c(C3=CCCC3)sc3ncnc(c13)O[C@@H](C(=O)O)Cc1cc(ccc1OCc1ccnc(C3=CC[C@](F)(COC[C@@H]4COCCO4)CC3)n1)OC[C@@H](CN1CCN(C)CC1)O2 [Example 35, (7R,16R)-19,23-dichloro-1-(cyclopent-1-en-1-yl)-10-({2-[(4S)-4-({[(2S)-1,4-dioxan-2-yl]methoxy}methyl)-4-fluorocyclohex-1-en-1-yl]pyrimidin-4-yl}methoxy)-20,22-dimethyl-16-[(4-methylpiperazin-1-yl)methyl]-7,8,15,16-tetrahydro-18,21-etheno-13,9-(metheno)-6,14,17-trioxa-2-thia-3,5-diazacyclononadeca[1,2,3-cd]indene-7-carboxylic acid]
IC50 [1]: 0.261 nM | Ki (GST-MCL-1; [3]): 0.52 nM | Ki (GST-MCL-1; [4]): 0.027 nM | IC50 [2]: 0.00111 µM

Cc1c(Cl)c2c(Cl)c(C)c1-c1c(-c3ccc(F)cc3)sc3ncnc(c13)O[C@@H](C(=O)O)Cc1cc(ccc1OCc1ccnc(-c3ccc(NC[C@H]4COCCO4)nc3)n1)OC[C@@H](CN1CCN(C)CC1)O2 [Example 36, (7R,16R)-19,23-dichloro-10-({2-[6-({[(2S)-1,4-dioxan-2-yl]methyl}amino)pyridin-3-yl]pyrimidin-4-yl}methoxy)-1-(4-fluorophenyl)-20,22-dimethyl-16-[(4-methylpiperazin-1-yl)methyl]-7,8,15,16-tetrahydro-18,21-etheno-13,9-(metheno)-6,14,17-trioxa-2-thia-3,5-diazacyclononadeca[1,2,3-cd]indene-7-carboxylic acid]
IC50 [1]: 0.0488 nM | Ki (GST-MCL-1; [3]): 0.05 nM | Ki (GST-MCL-1; [4]): 0.001 nM | IC50 [2]: 0.000183 µM

Cc1c(Cl)c2c(Cl)c(C)c1-c1c(C3=CCCC3)sc3ncnc(c13)O[C@@H](C(=O)O)Cc1cc(ccc1OCc1ccnc([C@H]3CC[C@@](F)(COC[C@@H]4COCCO4)CC3)n1)OC[C@@H](CN1CCN(C)CC1)O2 [Example 37, (7R,16R)-19,23-dichloro-1-(cyclopent-1-en-1-yl)-10-({2-[(1S,4r)-4-({[(2S)-1,4-dioxan-2-yl]methoxy}methyl)-4-fluorocyclohexyl]pyrimidin-4-yl}methoxy)-20,22-dimethyl-16-[(4-methylpiperazin-1-yl)methyl]-7,8,15,16-tetrahydro-18,21-etheno-13,9-(metheno)-6,14,17-trioxa-2-thia-3,5-diazacyclononadeca[1,2,3-cd]indene-7-carboxylic acid]
IC50 [1]: 0.187 nM | Ki (GST-MCL-1; [3]): 0.63 nM | Ki (GST-MCL-1; [4]): 0.051 nM | IC50 [2]: 0.00053 µM

Cc1c(Cl)c2c(Cl)c(C)c1-c1c(C3=CCCC3)sc3ncnc(c13)O[C@@H](C(=O)O)Cc1cc(ccc1OCc1ccnc(C3=CC[C@@](F)(COC[C@@H]4COCCO4)CC3)n1)OC[C@@H](CN1CCN(C)CC1)O2 [Example 38, (7R,16R)-19,23-dichloro-1-(cyclopent-1-en-1-yl)-10-({2-[(4R)-4-({[(2S)-1,4-dioxan-2-yl]methoxy}methyl)-4-fluorocyclohex-1-en-1-yl]pyrimidin-4-yl}methoxy)-20,22-dimethyl-16-[(4-methylpiperazin-1-yl)methyl]-7,8,15,16-tetrahydro-18,21-etheno-13,9-(metheno)-6,14,17-trioxa-2-thia-3,5-diazacyclononadeca[1,2,3-cd]indene-7-carboxylic acid]
IC50 [1]: 0.267 nM | Ki (GST-MCL-1; [3]): 0.63 nM | Ki (GST-MCL-1; [4]): 0.036 nM | IC50 [2]: 0.000748 µM

Cc1c(Cl)c2c(Cl)c(C)c1-c1c(-c3ccc(F)cc3)sc3ncnc(c13)O[C@@H](C(=O)O)Cc1cc(ccc1OCc1ccnc([C@H]3CC[C@](F)(COC[C@H]4COCCO4)CC3)n1)OC[C@@H](CN1CCN(C)CC1)O2 [Example 39, (7R,16R)-19,23-dichloro-10-({2-[(1S,4s)-4-({[(2R)-1,4-dioxan-2-yl]methoxy}methyl)-4-fluorocyclohexyl]pyrimidin-4-yl}methoxy)-1-(4-fluorophenyl)-20,22-dimethyl-16-[(4-methylpiperazin-1-yl)methyl]-7,8,15,16-tetrahydro-18,21-etheno-13,9-(metheno)-6,14,17-trioxa-2-thia-3,5-diazacyclononadeca[1,2,3-cd]indene-7-carboxylic acid]
IC50 [1]: 0.235 nM | Ki (GST-MCL-1; [3]): 0.06 nM | Ki (GST-MCL-1; [4]): 0.004 nM | IC50 [2]: 0.000239 µM

Cc1c(Cl)c2c(Cl)c(C)c1-c1c(-c3ccc(F)cc3)sc3ncnc(c13)O[C@@H](C(=O)O)Cc1cc(ccc1OCc1ccnc(C3=CC[C@](F)(COC[C@H]4COCCO4)CC3)n1)OC[C@@H](CN1CCN(C)CC1)O2 [Example 40, (7R,16R)-19,23-dichloro-10-({2-[(4S)-4-({[(2R)-1,4-dioxan-2-yl]methoxy}methyl)-4-fluorocyclohex-1-en-1-yl]pyrimidin-4-yl}methoxy)-1-(4-fluorophenyl)-20,22-dimethyl-16-[(4-methylpiperazin-1-yl)methyl]-7,8,15,16-tetrahydro-18,21-etheno-13,9-(metheno)-6,14,17-trioxa-2-thia-3,5-diazacyclononadeca[1,2,3-cd]indene-7-carboxylic acid]
IC50 [1]: 0.352 nM | Ki (GST-MCL-1; [3]): 0.63 nM | Ki (GST-MCL-1; [4]): 0.014 nM | IC50 [2]: 0.000271 µM

Cc1c(Cl)c2c(Cl)c(C)c1-c1c(-c3ccc(F)cc3)sc3ncnc(c13)O[C@@H](C(=O)O)Cc1cc(ccc1OCc1ccnc(-c3ccc(NC[C@@H]4COCCO4)nc3)n1)OC[C@@H](CN1CCN(C)CC1)O2 [Example 41, (7R,16R)-19,23-dichloro-10-({2-[6-({[(2R)-1,4-dioxan-2-yl]methyl}amino)pyridin-3-yl]pyrimidin-4-yl}methoxy)-1-(4-fluorophenyl)-20,22-dimethyl-16-[(4-methylpiperazin-1-yl)methyl]-7,8,15,16-tetrahydro-18,21-etheno-13,9-(metheno)-6,14,17-trioxa-2-thia-3,5-diazacyclononadeca[1,2,3-cd]indene-7-carboxylic acid]
IC50 [1]: 0.589 nM | Ki (GST-MCL-1; [3]): 0.14 nM | Ki (GST-MCL-1; [4]): 0.009 nM | IC50 [2]: 0.000595 µM

Cc1c(Cl)c2c(Cl)c(C)c1-c1c(-c3ccc(F)cc3)sc3ncnc(c13)O[C@@H](C(=O)O)Cc1cc(ccc1OCc1ccnc(C3=CC[C@@](F)(COC[C@@H]4COCCO4)CC3)n1)OC[C@@H](CN1CCN(C)CC1)O2 [Example 42, (7R,16R)-19,23-dichloro-10-({2-[(4R)-4-({[(2S)-1,4-dioxan-2-yl]methoxy}methyl)-4-fluorocyclohex-1-en-1-yl]pyrimidin-4-yl}methoxy)-1-(4-fluorophenyl)-20,22-dimethyl-16-[(4-methylpiperazin-1-yl)methyl]-7,8,15,16-tetrahydro-18,21-etheno-13,9-(metheno)-6,14,17-trioxa-2-thia-3,5-diazacyclononadeca[1,2,3-cd]indene-7-carboxylic acid]
IC50 [1]: 0.404 nM | Ki (GST-MCL-1; [3]): 0.24 nM | Ki (GST-MCL-1; [4]): 0.018 nM | IC50 [2]: 0.000356 µM

Cc1c(Cl)c2c(Cl)c(C)c1-c1c(-c3ccc(F)cc3)sc3ncnc(c13)O[C@@H](C(=O)O)Cc1cc(ccc1OCc1ccnc(C3=CC[C@@](F)(COC[C@H]4COCCO4)CC3)n1)OC[C@@H](CN1CCN(C)CC1)O2 [Example 43, (7R,16R)-19,23-dichloro-10-({2-[(4R)-4-({[(2R)-1,4-dioxan-2-yl]methoxy}methyl)-4-fluorocyclohex-1-en-1-yl]pyrimidin-4-yl}methoxy)-1-(4-fluorophenyl)-20,22-dimethyl-16-[(4-methylpiperazin-1-yl)methyl]-7,8,15,16-tetrahydro-18,21-etheno-13,9-(metheno)-6,14,17-trioxa-2-thia-3,5-diazacyclononadeca[1,2,3-cd]indene-7-carboxylic acid]
IC50 [1]: 0.346 nM | Ki (GST-MCL-1; [3]): 0.18 nM | Ki (GST-MCL-1; [4]): 0.02 nM | IC50 [2]: 0.000365 µM

Cc1c(Cl)c2c(Cl)c(C)c1-c1c(-c3ccc(F)cc3)sc3ncnc(c13)O[C@@H](C(=O)O)Cc1cc(ccc1OCc1ccnc([C@H]3CC[C@H](OC[C@@H]4COCCO4)CC3)n1)OC[C@@H](CN1CCN(C)CC1)O2 [Example 44, (7R,16R)-19,23-dichloro-10-({2-[(1S,4r)-4-{[(2S)-1,4-dioxan-2-yl]methoxy}cyclohexyl]pyrimidin-4-yl}methoxy)-1-(4-fluorophenyl)-20,22-dimethyl-16-[(4-methylpiperazin-1-yl)methyl]-7,8,15,16-tetrahydro-18,21-etheno-13,9-(metheno)-6,14,17-trioxa-2-thia-3,5-diazacyclononadeca[1,2,3-cd]indene-7-carboxylic acid]
IC50 [1]: 0.268 nM | Ki (GST-MCL-1; [3]): 0.16 nM | Ki (GST-MCL-1; [4]): 0.02 nM | IC50 [2]: 0.000286 µM
